pIC50: −log10 of the molar value.
Tests used:
ALK (h) = ALK (h) (Homo sapiens (Human), UniProt Q9UM73); assay: Kinase assay, single dose inhibition (Millipore, 33P-ATP filter binding); type: biochemical; conditions: 0.1 μM test compound, 10 μM ATP; remaining activity relative to DMSO control = 100%
[1] = system: HCC827 (EGFR Del) NSCLC cells; assay: Cell proliferation assay (MTS cell viability); type: cell-based; conditions: Homo sapiens, 72 h; HCC827 cells, 3 days of exposure, MTS
EGFR (T790M, L858R) (h) = EGFR (T790M, L858R) (h) (Homo sapiens (Human), UniProt P00533, L858R/T790M); assay: Kinase assay, single dose inhibition (Millipore, 33P-ATP filter binding); type: biochemical; conditions: 0.1 μM test compound, 10 μM ATP; remaining activity relative to DMSO control = 100%
[2] = system: H1975 (EGFR L858R/T790M) NSCLC cells; assay: Cell proliferation assay (MTS cell viability); type: cell-based; conditions: Homo sapiens, NCI-H1975, 72 h; H1975 cells, 3 days of exposure, MTS
EGFR (L858R) (h) = EGFR (L858R) (h) (Homo sapiens (Human), UniProt P00533, L858R); assay: Kinase assay, single dose inhibition (Millipore, 33P-ATP filter binding); type: biochemical; conditions: 0.1 μM test compound, 10 μM ATP; remaining activity relative to DMSO control = 100%
EGFR (h) = EGFR (h) (Homo sapiens (Human), UniProt P00533); assay: as above; type: biochemical; conditions: 0.1 μM test compound, 10 μM ATP; remaining activity relative to DMSO control = 100%
EGFR (T790M) (h) = EGFR (T790M) (h) (Homo sapiens (Human), UniProt P00533, T790M); assay: as above; type: biochemical; conditions: 0.1 μM test compound, 10 μM ATP; remaining activity relative to DMSO control = 100%
[3] = system: A549 (EGFR WT) NSCLC cells; assay: Cell proliferation assay (MTS cell viability); type: cell-based; conditions: Homo sapiens, 72 h; A549 cells, 3 days of exposure, MTS

Chain of EGFR (h) (P00533 25-1210): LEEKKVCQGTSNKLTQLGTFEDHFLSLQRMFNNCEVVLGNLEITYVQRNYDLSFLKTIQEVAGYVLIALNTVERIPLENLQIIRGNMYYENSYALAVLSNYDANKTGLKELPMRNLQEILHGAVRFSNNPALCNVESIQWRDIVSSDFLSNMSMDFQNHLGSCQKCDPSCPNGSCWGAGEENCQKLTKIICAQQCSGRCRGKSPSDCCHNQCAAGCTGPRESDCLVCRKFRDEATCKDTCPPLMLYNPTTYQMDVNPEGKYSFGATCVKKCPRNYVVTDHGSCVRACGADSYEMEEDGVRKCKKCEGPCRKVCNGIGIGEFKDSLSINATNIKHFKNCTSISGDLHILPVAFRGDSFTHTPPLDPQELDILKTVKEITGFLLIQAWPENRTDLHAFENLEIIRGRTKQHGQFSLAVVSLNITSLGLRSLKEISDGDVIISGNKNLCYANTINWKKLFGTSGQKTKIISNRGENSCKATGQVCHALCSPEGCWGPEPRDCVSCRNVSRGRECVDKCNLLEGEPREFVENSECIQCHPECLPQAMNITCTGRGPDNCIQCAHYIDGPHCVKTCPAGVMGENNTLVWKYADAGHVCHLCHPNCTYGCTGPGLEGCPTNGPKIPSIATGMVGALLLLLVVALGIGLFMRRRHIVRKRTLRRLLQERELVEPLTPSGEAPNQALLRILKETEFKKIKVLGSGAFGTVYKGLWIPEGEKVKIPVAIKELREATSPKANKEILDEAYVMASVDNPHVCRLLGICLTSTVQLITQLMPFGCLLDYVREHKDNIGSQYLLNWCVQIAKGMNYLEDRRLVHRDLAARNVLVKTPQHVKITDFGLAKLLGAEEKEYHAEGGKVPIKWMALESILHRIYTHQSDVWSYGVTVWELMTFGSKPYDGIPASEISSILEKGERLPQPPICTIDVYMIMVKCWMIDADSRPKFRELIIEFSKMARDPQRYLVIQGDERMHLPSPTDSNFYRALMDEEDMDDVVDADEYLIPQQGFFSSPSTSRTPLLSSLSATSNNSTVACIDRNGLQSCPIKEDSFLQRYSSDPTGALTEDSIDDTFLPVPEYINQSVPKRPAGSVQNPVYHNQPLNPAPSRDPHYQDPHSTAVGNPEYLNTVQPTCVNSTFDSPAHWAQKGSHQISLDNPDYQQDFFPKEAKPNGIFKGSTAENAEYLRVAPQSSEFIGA
Chain of EGFR (L858R) (h) (P00533 25-1210 L858R): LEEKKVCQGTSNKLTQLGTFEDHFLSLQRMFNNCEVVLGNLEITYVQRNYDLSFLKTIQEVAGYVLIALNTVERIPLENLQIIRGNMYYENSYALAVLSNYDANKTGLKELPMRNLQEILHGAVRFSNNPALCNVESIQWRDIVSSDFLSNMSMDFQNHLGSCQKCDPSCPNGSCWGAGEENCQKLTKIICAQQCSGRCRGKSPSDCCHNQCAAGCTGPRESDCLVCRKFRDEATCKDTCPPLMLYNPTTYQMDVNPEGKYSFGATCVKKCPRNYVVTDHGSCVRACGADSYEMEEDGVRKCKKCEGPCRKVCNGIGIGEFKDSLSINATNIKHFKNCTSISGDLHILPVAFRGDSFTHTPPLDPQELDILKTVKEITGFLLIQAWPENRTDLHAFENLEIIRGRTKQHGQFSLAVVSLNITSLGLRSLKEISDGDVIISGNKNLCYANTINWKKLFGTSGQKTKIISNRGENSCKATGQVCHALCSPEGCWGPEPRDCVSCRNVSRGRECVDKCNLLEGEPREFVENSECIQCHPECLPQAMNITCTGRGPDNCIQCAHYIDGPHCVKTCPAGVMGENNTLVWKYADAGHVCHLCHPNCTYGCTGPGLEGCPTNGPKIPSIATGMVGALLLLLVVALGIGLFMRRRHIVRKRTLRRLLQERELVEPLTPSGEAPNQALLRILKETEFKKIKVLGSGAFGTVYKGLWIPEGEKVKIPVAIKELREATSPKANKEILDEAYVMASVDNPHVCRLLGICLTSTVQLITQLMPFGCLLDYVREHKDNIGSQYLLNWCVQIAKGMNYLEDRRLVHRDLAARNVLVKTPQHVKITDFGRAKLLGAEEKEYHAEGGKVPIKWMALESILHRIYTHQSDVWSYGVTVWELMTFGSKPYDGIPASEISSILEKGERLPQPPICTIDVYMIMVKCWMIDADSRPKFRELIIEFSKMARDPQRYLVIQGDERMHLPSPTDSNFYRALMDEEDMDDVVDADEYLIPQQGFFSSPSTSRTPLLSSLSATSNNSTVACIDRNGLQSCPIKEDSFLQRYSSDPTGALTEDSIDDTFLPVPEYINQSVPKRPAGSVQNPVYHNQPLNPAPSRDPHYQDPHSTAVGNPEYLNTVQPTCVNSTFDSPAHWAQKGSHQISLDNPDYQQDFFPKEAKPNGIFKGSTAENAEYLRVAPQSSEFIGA
Chain of EGFR (T790M, L858R) (h) (P00533 25-1210 T790M/L858R): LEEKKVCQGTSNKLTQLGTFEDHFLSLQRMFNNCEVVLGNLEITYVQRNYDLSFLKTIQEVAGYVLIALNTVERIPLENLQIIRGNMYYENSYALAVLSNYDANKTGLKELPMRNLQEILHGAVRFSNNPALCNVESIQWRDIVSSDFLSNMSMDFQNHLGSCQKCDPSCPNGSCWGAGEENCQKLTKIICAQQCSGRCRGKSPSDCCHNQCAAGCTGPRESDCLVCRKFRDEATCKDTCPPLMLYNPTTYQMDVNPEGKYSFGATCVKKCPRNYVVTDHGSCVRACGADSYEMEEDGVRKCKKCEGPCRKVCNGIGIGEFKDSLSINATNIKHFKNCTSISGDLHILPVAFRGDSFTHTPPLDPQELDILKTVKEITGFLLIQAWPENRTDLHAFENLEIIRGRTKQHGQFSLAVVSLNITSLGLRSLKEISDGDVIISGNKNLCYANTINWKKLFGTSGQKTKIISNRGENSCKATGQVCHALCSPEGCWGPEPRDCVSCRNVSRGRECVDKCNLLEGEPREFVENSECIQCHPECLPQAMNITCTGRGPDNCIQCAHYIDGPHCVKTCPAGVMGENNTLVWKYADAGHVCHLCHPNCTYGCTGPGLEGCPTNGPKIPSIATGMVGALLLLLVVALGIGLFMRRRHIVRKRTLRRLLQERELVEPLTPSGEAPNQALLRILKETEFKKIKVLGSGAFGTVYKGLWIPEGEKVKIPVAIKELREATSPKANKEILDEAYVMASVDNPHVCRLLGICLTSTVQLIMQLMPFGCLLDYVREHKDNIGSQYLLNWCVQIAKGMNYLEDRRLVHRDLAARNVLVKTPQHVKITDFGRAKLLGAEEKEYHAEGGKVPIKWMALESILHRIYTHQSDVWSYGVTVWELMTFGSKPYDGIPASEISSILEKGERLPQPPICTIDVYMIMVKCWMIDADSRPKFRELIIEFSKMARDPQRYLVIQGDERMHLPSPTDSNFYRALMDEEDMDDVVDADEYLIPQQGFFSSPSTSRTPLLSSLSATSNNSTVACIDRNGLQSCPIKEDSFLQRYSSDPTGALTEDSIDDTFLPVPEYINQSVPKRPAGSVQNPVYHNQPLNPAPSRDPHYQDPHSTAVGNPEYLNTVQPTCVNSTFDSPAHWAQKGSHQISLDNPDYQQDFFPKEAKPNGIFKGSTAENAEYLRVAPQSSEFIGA
Chain of EGFR (T790M) (h) (P00533 25-1210 T790M): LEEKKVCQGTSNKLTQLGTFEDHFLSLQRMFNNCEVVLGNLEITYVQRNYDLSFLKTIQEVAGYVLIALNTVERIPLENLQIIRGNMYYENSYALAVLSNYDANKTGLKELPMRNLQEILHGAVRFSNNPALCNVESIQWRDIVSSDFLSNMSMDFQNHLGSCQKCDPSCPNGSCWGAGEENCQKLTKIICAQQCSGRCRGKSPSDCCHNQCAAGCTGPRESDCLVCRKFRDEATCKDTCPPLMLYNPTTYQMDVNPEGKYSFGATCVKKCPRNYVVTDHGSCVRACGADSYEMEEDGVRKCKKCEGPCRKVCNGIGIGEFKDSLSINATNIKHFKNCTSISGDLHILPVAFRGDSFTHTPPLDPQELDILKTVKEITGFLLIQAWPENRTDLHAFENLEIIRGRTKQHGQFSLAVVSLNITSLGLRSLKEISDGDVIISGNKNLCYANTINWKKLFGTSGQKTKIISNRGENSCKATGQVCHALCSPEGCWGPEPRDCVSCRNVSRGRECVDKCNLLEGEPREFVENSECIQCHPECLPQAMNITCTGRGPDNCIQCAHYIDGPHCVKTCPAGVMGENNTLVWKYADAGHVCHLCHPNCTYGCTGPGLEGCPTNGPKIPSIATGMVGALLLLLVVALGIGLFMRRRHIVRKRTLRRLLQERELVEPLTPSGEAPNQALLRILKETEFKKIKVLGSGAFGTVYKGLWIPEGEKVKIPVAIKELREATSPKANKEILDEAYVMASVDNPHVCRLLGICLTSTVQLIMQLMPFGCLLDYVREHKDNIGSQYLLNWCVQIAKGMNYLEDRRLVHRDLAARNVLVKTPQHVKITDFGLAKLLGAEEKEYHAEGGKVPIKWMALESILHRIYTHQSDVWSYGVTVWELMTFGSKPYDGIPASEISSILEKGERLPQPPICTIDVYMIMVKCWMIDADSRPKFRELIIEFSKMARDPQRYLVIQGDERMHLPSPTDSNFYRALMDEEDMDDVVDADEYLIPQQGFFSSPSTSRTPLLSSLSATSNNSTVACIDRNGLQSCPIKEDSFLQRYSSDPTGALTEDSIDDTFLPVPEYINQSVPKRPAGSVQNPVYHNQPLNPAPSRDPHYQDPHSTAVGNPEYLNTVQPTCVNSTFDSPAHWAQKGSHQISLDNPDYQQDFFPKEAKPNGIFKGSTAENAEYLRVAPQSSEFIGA

SMILES	pIC50 [1]	pIC50 [2]	pIC50 [3]	Activity (control) % ALK (h) (ALK (h)) [%]	Activity (control) % EGFR (T790M, L858R) (h) (EGFR (T790M, L858R) (h)) [%]	Activity (control) % EGFR (L858R) (h) (EGFR (L858R) (h)) [%]	Activity (control) % EGFR (h) (EGFR (h)) [%]	Activity (control) % EGFR (T790M) (h) (EGFR (T790M) (h)) [%]
C=CC(=O)Nc1cccc(Nc2ncc(Cl)c(Nc3ccccc3C(=O)C(=O)N(C)C)n2)c1 [Example 40, N-(3-(5-chloro-4-(2-(2-(dimethylamino)-2-oxoacetyl)phenylamino)pyrimidin-2-ylamino)phenyl)acrylamide]	7.15	8.00	6.19	28	24	103	106	79
COc1cc(N2CCC(N(C)C)CC2)ccc1Nc1ncc(Cl)c(Nc2ccccc2C(=O)C(=O)NO)n1 [Example 3, 2-(2-(5-chloro-2-(4-(4-(dimethylamino)piperidin-1-yl)-2-methoxyphenylamino)pyrimidin-4-ylamino)phenyl)-N-hydroxy-2-oxoacetamide]	6.03	6.08	< 5.52	–	–	–	–	–
COc1cc(N2CCN(C)CC2)ccc1Nc1ncc(Cl)c(Nc2ccccc2C(=O)C(=O)N2CCOCC2)n1 [Example 44, 1-(2-(5-chloro-2-(2-methoxy-4-(4-methylpiperazin-1-yl)phenylamino)pyrimidin-4-ylamino)phenyl)-2-morpholinoethane-1,2-dione]	5.63	5.91	< 5.52	–	–	–	–	–
COc1cc(N2CCN(C(C)=O)CC2)ccc1Nc1ncc(Cl)c(Nc2ccccc2C(=O)C(=O)N2CCOCC2)n1 [Example 42, 1-(2-(2-(4-(4-acetylpiperazin-1-yl)-2-methoxyphenylamino)-5-chloropyrimidin-4-ylamino)phenyl)-2-morpholinoethane-1,2-dione]	< 5.52	< 5.52	< 5.52	–	–	–	–	–
COc1cc(N2CCC(N(C)C)CC2)ccc1Nc1ncc(Cl)c(Nc2ccccc2C(=O)C(N)=O)n1 [Example 4, 2-(2-(5-chloro-2-(4-(4-(dimethylamino)piperidin-1-yl)-2-methoxyphenylamino)pyrimidin-4-ylamino)phenyl)-2-oxoacetamide]	5.58	< 5.52	< 5.52	8	2	8	65	4
CNC(=O)C(=O)c1ccccc1Nc1nc(Nc2ccc(N3CCC(N(C)C)CC3)cc2OC)ncc1Cl [Example 16, 2-(2-((5-chloro-2-((4-(4-(dimethylamino)piperidin-1-yl)-2-methoxyphenyl)amino)pyrimidin-4-yl)amino)phenyl)-N-methyl-2-oxoacetamide]	6.05	5.95	< 5.52	–	–	–	–	–
COc1cc(N2CCN(C)CC2)ccc1Nc1ncc(C(F)(F)F)c(Nc2ccccc2C(=O)C(=O)N2CCOCC2)n1 [Example 43, 1-(2-(2-(2-methoxy-4-(4-methylpiperazin-1-yl)phenylamino)-5-(trifluoromethyl)pyrimidin-4-ylamino)phenyl)-2-morpholinoethane-1,2-dione]	< 5.52	< 5.52	< 5.52	–	–	–	–	–
C=CC(=O)Nc1cc(Nc2ncc(Cl)c(Nc3ccccc3C(=O)C(=O)NC)n2)ccc1OC [Example 64, N-(5-(5-chloro-4-(2-(2-(methylamino)-2-oxoacetyl)phenylamino)pyrimidin-2-ylamino)-2-methoxyphenyl)acrylamide]	6.35	7.05	< 5.52	47	39	100	106	79
C=CC(=O)Nc1cc(Nc2ncc(Cl)c(Nc3ccccc3C(=O)C(=O)N(CC)CC)n2)ccc1OC [Example 132, N-(5-(5-chloro-4-(2-(2-(diethylamino)-2-oxoactyl)phenylamino)pyrimidin-2-ylamino)-2-methoxyphenyl)acrylamide]	–	–	–	16	30	114	103	77
CCC(=O)Nc1cc(Nc2ncc(Cl)c(Nc3ccccc3C(=O)C(=O)N(C)C)n2)ccc1OCCN(C)C [Example 120, N-(5-(5-chloro-4-(2-(2-(dimethylamino)-2-oxoactyl)phenylamino)pyrimidin-2-ylamino)-2-(2-(dimethylamino)ethoxy)phenyl)propionamide]	–	–	–	8	14	76	115	62

The next lines start with results.

pIC50 [1]	pIC50 [2]	pIC50 [3]	SMILES	Activity (control) % ALK (h) (ALK (h)) [%]	Activity (control) % EGFR (T790M, L858R) (h) (EGFR (T790M, L858R) (h)) [%]	Activity (control) % EGFR (L858R) (h) (EGFR (L858R) (h)) [%]	Activity (control) % EGFR (h) (EGFR (h)) [%]	Activity (control) % EGFR (T790M) (h) (EGFR (T790M) (h)) [%]
6.57	7.00	< 5.52	C=CC(=O)Nc1cccc(Nc2ncc(Cl)c(Nc3ccccc3C(=O)C(=O)NC)n2)c1 [Example 57, N-(3-(5-chloro-4-(2-(2-(methylamino)-2-oxoacetyl)phenylamino)pyrimidin-2-ylamino)phenyl)acrylamide]	–	–	–	–	–
6.06	6.82	5.68	CNC(=O)C(=O)c1ccccc1Nc1nc(Nc2ccc(N3CCN(C)CC3)c(OC)c2)ncc1Cl [Example 60, 2-(2-(5-chloro-2-(3-methoxy-4-(4-methylpiperazin-1-yl)phenylamino)pyrimidin-4-ylamino)phenyl)-N-methyl-2-oxoacetamide]	–	–	–	–	–
5.79	6.09	< 5.52	COc1cc(N2CCN(C)CC2)ccc1Nc1ncc(Cl)c(Nc2ccccc2C(=O)C(=O)N(C)C)n1 [Example 46, 2-(2-(5-chloro-2-(2-methoxy-4-(4-methylpiperazin-1-yl)phenylamino)pyrimidin-4-ylamino)phenyl)-N,N-dimethyl-2-oxoacetamide]	–	–	–	–	–
6.28	6.01	6.43	C=CC(=O)Nc1cccc(Nc2ncc(C(F)(F)F)c(Nc3ccccc3C(=O)C(N)=O)n2)c1 [Example 58, N-(3-(4-(2-(2-amino-2-oxoacetyl)phenylamino)-5-(trifluoromethyl)pyrimidin-2-ylamino)phenyl)acrylamide]	–	–	–	–	–
< 5.52	< 5.52	< 5.52	COc1cc(N2CCC(N(C)C)CC2)ccc1Nc1ncc(C(F)(F)F)c(Nc2ccccc2C(=O)C(=O)N2CCOCC2)n1 [Example 45, 1-(2-(2-(4-(4-(dimethylamino)piperidin-1-yl)-2-methoxyphenylamino)-5-(trifluoromethyl)pyrimidin-4-ylamino)phenyl)-2-morpholinoethane-1,2-dione]	–	–	–	–	–
< 5.52	< 5.52	< 5.52	CNC(=O)C(=O)c1ccccc1Nc1nc(Nc2ccc(N3CCN(C)CC3)cc2OC)ncc1Cl [Example 47, 2-(2-(5-chloro-2-(2-methoxy-4-(4-methylpiperazin-1-yl)phenylamino)pyrimidin-4-ylamino)phenyl)-N-methyl-2-oxoacetamide]	–	–	–	–	–
5.92	6.19	< 5.52	C=CC(=O)Nc1cc(Nc2ncc(Cl)c(Nc3ccccc3C(=O)C(=O)NC)n2)c(F)cc1OC [Example 68, N-(5-(5-chloro-4-(2-(2-(methylamino)-2-oxoacetyl)phenylamino)pyrimidin-2-ylamino)-4-fluoro-2-methoxyphenyl)acrylamide]	–	–	–	–	–
< 5.52	6.72	< 5.52	C=CC(=O)N1CCC(NC(=O)C(=O)c2ccccc2Nc2nc(Nc3ccc(F)c(OC)c3)ncc2Cl)CC1 [Example 59, N-(1-acryloylpiperidin-4-yl)-2-(2-(5-chloro-2-(4-fluoro-3-methoxyphenylamino)pyrimidin-4-ylamino)phenyl)-2-oxoacetamide]	–	–	–	–	–
5.98	6.51	5.86	C/C=C/C(=O)Nc1ccc(OC)c(Nc2ncc(Cl)c(Nc3ccccc3C(=O)C(=O)N(C)C)n2)c1 [Example 70, (E)-N-(3-(5-chloro-4-(2-(2-(dimethylamino)-2-oxoacetyl)phenylamino)pyrimidin-2-ylamino)-4-methoxyphenyl)but-2-enamide]	–	–	–	–	–
–	–	< 5.52	C=CC(=O)Nc1cccc(Oc2nc(Nc3ccc(N4CCN(C)CC4)cc3OC)ncc2Cl)c1 [WZ4002, reference compound]	–	–	–	–	–
5.92	6.51	< 5.52	C=CC(=O)Nc1cc(Nc2ncc(Cl)c(Nc3ccccc3C(=O)C(=O)N(C)C)n2)c(F)cc1OC [Example 69, N-(5-(5-chloro-4-(2-(2-(dimethylamino)-2-oxoactyl)phenylamino)pyrimidin-2-ylamino)-4-fluoro-2-methoxyphenyl)acrylamide]	–	–	–	–	–
5.63	< 5.52	< 5.52	COc1cc(Nc2ncc(Cl)c(Nc3ccccc3C(=O)C(=O)N(C)C)n2)ccc1F [Example 62, 2-(2-(5-chloro-2-(4-fluoro-3-methoxyphenylamino)pyrimidin-4-ylamino)phenyl)-N,N-dimethyl-2-oxoacetamide]	–	–	–	–	–
< 5.52	6.19	< 5.52	CNC(=O)C(=O)c1ccccc1Nc1nc(Nc2ccc(F)c(OC)c2)ncc1Cl [Example 63, 2-(2-(5-chloro-2-(4-fluoro-3-methoxyphenylamino)pyrimidin-4-ylamino)phenyl)-N-methyl-2-oxoacetamide]	–	–	–	–	–

From US10059688B2, “Protein tyrosine kinase modulators and methods of use” (BETTA PHARMACEUTICALS CO., LTD., priority 2013, dated 2018)
